Assay results from PMC12040169 (PLOS Biology, 2025).

Assay: in vitro
Details: human, hela cells, % viability

Row | SMILES | viability at 28.5 h, 10 µM
1 | Cc1cc(C(=O)N2CCN(Cc3ccc4c(c3)OCO4)CC2)nn1C [CBK074832] | 111%
2 | COc1ccc(-c2ccc(=O)n3c2[C@@H]2C[C@@H](CN(C(=O)NC4CCCCC4)C2)C3)cc1 [CBK289189] | 82.1%
3 | COc1ccc(CC(=O)Nc2ccc(-c3nnc(-c4ccccc4)o3)cc2)cc1OC [CBK267414] | 94.9%
4 | COc1ccc(CN2C(=S)N(c3ccccc3)[C@H]3[C@@H]2[C@H]2OC(=O)[C@@H]3C[C@H]2O)cc1 [CBK288937] | 108%
5 | CCOC(=O)N1CCN(c2cccc3[nH]c(C(=O)O)cc23)CC1 [CBK083477] | 93.9%
6 | N#Cc1cnn2c(C(F)(F)F)cc(C(F)(F)F)nc12 [CBK014064] | 93.5%
7 | Cc1cc(CC(=O)NCCc2c[nH]c3ccc(Cl)cc23)on1 [CBK159774] | 86.4%
8 | COc1ccc(CNC(=O)C2CC=CCC2C(=O)O)cc1OC (centres unmarked) [CBK267695] | 86.6%
9 | OCCn1ncc2c(SC3CCCCC3)ncnc21 [CBK269358] | 87.8%
10 | CCCCc1ccc(S(=O)(=O)Nc2nccnc2-c2cccs2)cc1 [CBK050770] | 90.4%
11 | CC(C)N1CCC(CNC(=O)c2cc(C3CCCCC3)no2)CC1 [CBK283293] | 98.5%
12 | Cc1ccc(S(=O)(=O)Nc2ccc(C3(c4ccc(NS(=O)(=O)c5ccc(C)cc5)cc4)c4ccccc4C(=O)c4ccccc43)cc2)cc1 [CBK261155] | 111%
13 | Cc1cc(C)n(CC(=O)NCCCn2ccnc2C(C)C)c(=O)n1 [CBK307185] | 92.4%
14 | C=C(C)Cn1c(SCC(C)C)nnc1-c1cccs1 [CBK200086] | 96.5%
15 | CC(=O)Nc1ccc(CNc2ccc(Cl)cc2)cc1 [CBK012799] | 104%
16 | O=c1[nH]c2ncc(-c3cccc(CO)c3)nc2n1CC1CC1 [CBK065088] | 63.9%
17 | CCN(CC)CCN(C(=O)Nc1ccc(C(N)=O)cc1)C(C)c1ccc(OC)c(OC)c1 (centres unmarked) [CBK158962] | 108%
18 | Cc1nc2c(c(N3CCOCC3)n1)OCC(=O)N2 [CBK287939] | 94.5%
19 | CCCCNc1nccnc1-c1ccccc1 [CBK088477] | 90.1%
20 | COC(=O)c1c(NC(=S)NCc2cccnc2)sc(C)c1C [CBK267029] | 89.2%
21 | CCc1nccn1CCC(=O)NC1CCCN(Cc2ccccc2F)C1 (centres unmarked) [CBK306652] | 78.9%
22 | CC(C)=NOc1ncccc1C#N [CBK007841] | 115%

Row | SMILES | viability at 28.5 h, 10 µM
23 | CC1CCCCC1NC(=O)Cn1ncn2c(cc3ccsc32)c1=O (centres unmarked) [CBK284196] | 91.8%
24 | Cc1ccc(NC(=O)c2cnc3sc(C)cn3c2=O)cc1 [CBK287711] | 97.8%
25 | COc1ccc(CC(=O)Nc2cccc(OC(F)(F)F)c2)cc1OC [CBK296734] | 88.1%
26 | O=C(NC(c1ccccc1)c1ccco1)C1CCN(CCc2c[nH]c3ccccc23)CC1 (centres unmarked) [CBK148290] | 100%
27 | Cn1c(=O)n(Cc2ccccn2)c(=O)c2cnc(-c3ccncc3)nc21 [CBK288592] | 79%
28 | Cc1nc(CNc2ccc3nnc(C(F)(F)F)n3n2)cs1 [CBK305674] | 91.6%
29 | COc1ccc(C(C)NC(=O)c2cc(-c3ccc(F)cc3)[nH]n2)cc1 (centres unmarked) [CBK288060] | 87%
30 | O=C(O)CNC(=O)Cn1ccc2cc(OCc3ccccc3)ccc21 [CBK286665] | 81.2%
31 | Cc1cccc(Cl)c1S(=O)(=O)c1ccc2ccnc(N3CCNCC3)c2c1 [CBK036394C] | 78.9%
32 | Cc1ccc2nc(-c3ccccn3)cc(C(=O)NCc3ccccn3)c2c1 [CBK267782] | 86.6%
33 | COC(=O)Cc1ccc(NC(=S)Nc2ccc(N3CCOCC3)cc2)cc1 [CBK267211] | 87.4%
34 | Cc1cc(CSc2cccs2)no1 [CBK002635] | 91.8%
35 | Cn1ncc2c1CCCC2NC(=O)NCc1ccc(C#N)cc1F (centres unmarked) [CBK305193] | 85.4%
36 | CSc1nc(O)c(C(c2ccc(C(=O)O)cc2)c2c(O)nc(SC)nc2O)c(O)n1 [CBK265288] | 94.8%
37 | Cc1cc(I)ccc1S(=O)(=O)NCc1ccccn1 [CBK262155] | 106%
38 | Cc1cc(S(=O)(=O)Nc2cc(C3CC3)nn2C)c(C)cc1Cl [CBK043994] | 111%
39 | CCOC(=O)c1sc(-c2ccccc2)nc1C [CBK074204] | 87.5%
40 | O=C1Nc2ccccc2Oc2ccc(S(=O)(=O)N3CCOCC3)cc21 [CBK269807] | 75.5%
41 | CCn1nc(C)c(CNC(=O)N(Cc2ccccn2)CC(C)C)c1C [CBK304193] | 92.1%
42 | NC(=O)C1(N2CCCCC2)CCN(CC(=O)Nc2ccccc2Sc2ccccc2)CC1 [CBK268488] | 94.7%
43 | COc1ccccc1C/C(N)=N/OC(=O)COc1ccc2ccccc2c1 [CBK263730] | 89.7%
44 | CCN(CCO)C(=O)NC1CCCc2c1cnn2Cc1ccccc1 (centres unmarked) [CBK305277] | 91.5%

Row | SMILES | viability at 28.5 h, 10 µM
45 | COc1ccc(NC(=O)N[C@@H]2C=C[C@@H](c3c(C)nn(CCC#N)c3C)C2)cc1 [CBK288804] | 94.2%
46 | COCCN(CCOC)c1ncc(C#N)cc1Cl [CBK306227] | 92.6%
47 | COc1ccc(NC(=O)c2cnc(-c3ccc(Cl)cc3)c(-c3ccc(C(C)=O)s3)c2)cn1 [CBK036643] | 92.2%
48 | CC(=O)Nc1ccc(S(=O)(=O)NCCSc2ccc(C)cc2)cc1 [CBK263563] | 111%
49 | COc1c(Cl)cc(Cl)cc1C(=O)NC(=S)Nc1sc2c(c1C#N)CCCC2 [CBK268741] | 84.4%
50 | CCCNC(=O)c1ccc(NC(=O)NC(CC)c2ccnn2C)c(C)c1 (centres unmarked) [CBK307608] | 104%
51 | COc1cnc(-c2ccccc2OC)c(NC(=O)c2ccccc2)n1 [CBK145261] | 101%
52 | CCOCCn1c(=O)c2c(nc3oc(C(C)(C)C)cn32)n(C)c1=O [CBK307567] | 103%
53 | COc1cc(C(=O)N2CCC3(CC2)CC(=O)c2cc(-c4cccnc4)ccc2O3)cc(OC)c1C [CBK169606] | 112%
54 | O=C(NC(Cc1ccccc1)N1C(=O)c2ccccc2C1=O)N1CCCc2ccccc21 (centres unmarked) [CBK265551] | 111%
55 | Cc1cc2ccccc2n2c(=O)n(CC(=O)N(C(C)C)C(C)C)nc12 [CBK283885] | 87.1%
56 | CCOC(=O)Nc1ccc2ccccc2n1 [CBK028207] | 87.3%
57 | O=C(Nc1sc2c(c1C(=O)N1CCOCC1)CCCC2)c1cccs1 [CBK304649] | 92.9%
58 | Cc1cc(C)n2ncc(C(=O)N3CCCC3c3ccsc3)c2n1 (centres unmarked) [CBK305616] | 94.6%
59 | O=C(COc1ccc([N+](=O)[O-])cc1)Nc1ccc(S(=O)(=O)N2CCCCC2)cc1 [CBK265003] | 119%
60 | Cc1nn(CC(=O)NC(C)(C)C)c(=O)c2cc3sccc3n12 [CBK284021] | 80.9%
61 | O=c1[nH]nc2n1-c1ccccc1OC2 [CBK010583] | 104%
62 | CC(=O)c1ccc(CN2CCN(S(=O)(=O)c3ccc(C(F)(F)F)cc3Cl)CC2)cc1 [CBK063072] | 96%
63 | NS(=O)(=O)c1ccc(CCNC(=O)/C=C/c2ccc([N+](=O)[O-])cc2)cc1 [CBK265683] | 110%
64 | CS(=O)(=O)N[C@H]1CO[C@H]2[C@@H]1OC[C@@H]2Nc1nccc(-c2cccs2)n1 [CBK289519] | 92%
65 | COc1ccc(C(=O)NC(N2CCCCC2)C(Cl)(Cl)Cl)cc1 (centres unmarked) [CBK087021] | 89.1%
66 | Cc1cccc(C)c1NC(=O)C(C#N)C(=O)c1nn(-c2ccccc2)c2c1CSc1ccccc1-2 (centres unmarked) [CBK017678] | 81.8%

Row | SMILES | viability at 28.5 h, 10 µM
67 | O=C(c1ccco1)N1CCN(c2cc(-c3cc4ccccc4o3)ncn2)CC1 [CBK091114] | 102%
68 | O=C(O)c1nccnc1-c1ccc(COc2ccccc2)cc1 [CBK050806] | 90.2%
69 | Cc1c(-c2cc(C(F)F)n3nc(CCC(=O)O)nc3n2)cnn1C [CBK286888] | 85.7%
70 | CC(C)(C)OC(=O)NCCNCc1cc(F)cc(F)c1 [CBK056698] | 90.3%
71 | Cc1ccc(-c2oncc2C(=O)NCc2ccc(S(N)(=O)=O)cc2)cc1 [CBK154912] | 102%
72 | COc1cc2c(cc1OC)C(CCN1CCN(c3ccccc3C)CC1)OCC(C)(C)C2 (centres unmarked) [CBK024043C] | 98.5%
73 | CCCOc1ccc(-c2nn(-c3ccccc3)cc2/C=C2\SC(=S)N(CC(=O)O)C2=O)cc1 [CBK264525] | 111%
74 | CCN(CC)CCC(=O)N1CC2(CCN(C(=O)OCc3ccccc3)CC2)c2ccccc21 [CBK122479] | 106%
75 | Cn1cc(-c2nccnc2OCCc2cccs2)cn1 [CBK107066] | 95%
76 | O=C(CSc1nc2cc(Cl)ccc2[nH]1)Nc1ccccc1F [CBK269916] | 84.8%
77 | O=C(C1CCCC1)N1CCCCC1c1n[nH]cc1-c1ccncc1 (centres unmarked) [CBK283427] | 90.4%
78 | CCNC(=O)c1ccc(-c2ccc(OC(F)(F)F)cc2)nc1 [CBK156230] | 110%
79 | O=C(C1CC1)N1CCC(Cn2nc(-c3cccs3)ccc2=O)CC1 [CBK284039] | 101%
80 | O=C(NC1CCS(=O)(=O)C1)c1cnc2c(Cl)cccc2c1O (centres unmarked) [CBK304644] | 87.4%
81 | CCOC(=O)C1CCCN(Cc2c[nH]nc2-c2ccc(OC)cc2F)C1 (centres unmarked) [CBK307304] | 91.1%
82 | O=C(O)C1C2C=CC(C2)C1C(=O)N1CCN(C(c2ccccc2)c2ccccc2)CC1 (centres unmarked) [CBK262659] | 95.2%
83 | OC1(c2ccccc2)CCNCC1 [CBK012290] | 101%
84 | COc1ccc(C(=O)Nc2cccc3nsnc23)cc1OC [CBK260973] | 92.2%
85 | CCCc1cnc(N2CCOCC2)nc1 [CBK028742] | 89%
86 | O=C(O)/C=C/c1cccc(-c2cncc(NCCc3ccncc3)n2)c1 [CBK065358] | 99.5%
87 | COCCNC(=O)c1ccc(-c2cc(C(C)C)ccc2OC)nc1N(C)C [CBK106061] | 103%

Same assay, conditions: human, hela cells, % viability, bulk resorufin, single well

Row | SMILES | viability at 28.5 h, 10 µM
88 | COc1ccc(CCNCc2cccc(Cl)c2)cc1 [CBK058787] | 90%
89 | CCOC(=O)N1CCC2(CC1)OCc1cc(-c3cccc(F)c3)ccc1O2 [CBK060987] | 104%
